Data taken from ChEMBL document CHEMBL1201862, “PubChem BioAssay data set” (2004).
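Where inhibition never reached the appropriate level, the endpoint shown equals the highest concentration tested. Otherwise, values were interpolated linearly from a five-concentration, 48-hour dose response in 96-well plates. GI50 marks 50% less growth.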 Active and inactive are the calls of the source. Rule as the data show it: active = GI50 up to about 1.1 µM and inactive = higher.

Legend:
Assay in all cases: NCI-60 cell line screen, 48 h
HT-29 = test system: HT-29
BT-549 = test system: BT-549
Malme-3M = test system: Malme-3M
NCI-H226 = test system: NCI-H226
NCI-H460 = test system: NCI-H460
IGROV-1 = test system: IGROV-1
MDA-N = test system: MDA-N
786-0 = test system: 786-0
CAKI-1 = test system: CAKI-1
SF-268 = test system: SF-268
DU-145 = test system: DU-145
RXF 393 = test system: RXF 393
MDA-MB-231 = test system: MDA-MB-231
SNB-19 = test system: SNB-19
TK-10 = test system: TK-10
SN12C = test system: SN12C
SK-MEL-28 = test system: SK-MEL-28
HCT-15 = test system: HCT-15
CCRF-CEM = test system: CCRF-CEM
UACC-257 = test system: UACC-257
UACC-62 = test system: UACC-62
OVCAR-8 = test system: OVCAR-8
T47D = test system: T47D
A549 = test system: A549
ACHN = test system: ACHN
SK-MEL-5 = test system: SK-MEL-5
HCT-116 = test system: HCT-116
KM12 = test system: KM12
HOP-92 = test system: HOP-92
NCI-H23 = test system: NCI-H23
OVCAR-3 = test system: OVCAR-3
M14 = test system: M14
U-251 = test system: U-251
MDA-MB-435 = test system: MDA-MB-435
SW-620 = test system: SW-620
OVCAR-5 = test system: OVCAR-5
NCI/ADR-RES = test system: NCI/ADR-RES
A498 = test system: A498
SK-MEL-2 = test system: SK-MEL-2
EKVX = test system: EKVX
UO-31 = test system: UO-31
SF-295 = test system: SF-295
RPMI-8226 = test system: RPMI-8226
OVCAR-4 = test system: OVCAR-4
PC-3 = test system: PC-3
NCI-H522 = test system: NCI-H522
LOX IMVI = test system: LOX IMVI
COLO 205 = test system: COLO 205
HOP-62 = test system: HOP-62
K562 = test system: K562
MCF7 = test system: MCF7
MOLT-4 = test system: MOLT-4
SNB-75 = test system: SNB-75
SK-OV-3 = test system: SK-OV-3
SF-539 = test system: SF-539
SR = test system: SR
HL-60 = test system: HL-60
HCC 2998 = test system: HCC 2998

**Q.** How did the GI50 (HT-29) turn out when `NC(=O)Nc1ccc(S(=O)(=O)Nc2ccc(S(N)(=O)=O)cc2)cc1` was run?
**A.** Its GI50 is > 100 µM (inactive).

**Q.** And the GI50 (BT-549)?
**A.** The GI50 was > 100 µM (inactive).

**Q.** What about the GI50 (Malme-3M) of the same molecule?
**A.** The GI50 was > 100 µM (inactive).

**Q.** And the GI50 (NCI-H226)?
**A.** The GI50 was > 100 µM (inactive).

**Q.** And the GI50 (NCI-H460)?
**A.** The GI50 was > 100 µM (inactive).

**Q.** What about the GI50 (IGROV-1) of the same molecule?
**A.** The GI50 was > 100 µM (inactive).

**Q.** And the GI50 (MDA-N)?
**A.** The GI50 was > 100 µM (inactive).

**Q.** What about the GI50 (786-0) of the same molecule?
**A.** Its GI50 is > 100 µM (inactive).

**Q.** And the GI50 (CAKI-1)?
**A.** Its GI50 is > 100 µM (inactive).

**Q.** And the GI50 (SF-268)?
**A.** Its GI50 is 0.649 µM (active).

**Q.** What about the GI50 (DU-145) of the same molecule?
**A.** Its GI50 is > 100 µM (inactive).

**Q.** And the GI50 (RXF 393)?
**A.** The GI50 was > 100 µM (inactive).

**Q.** What about the GI50 (MDA-MB-231) of the same molecule?
**A.** The GI50 was > 100 µM (inactive).

**Q.** And the GI50 (SNB-19)?
**A.** Its GI50 is > 100 µM (inactive).

**Q.** What about the GI50 (TK-10) of the same molecule?
**A.** The GI50 was > 100 µM (inactive).

**Q.** What about the GI50 (SN12C) of the same molecule?
**A.** Its GI50 is > 100 µM (inactive).

**Q.** And the GI50 (SK-MEL-28)?
**A.** The GI50 was > 100 µM (inactive).

**Q.** What about the GI50 (HCT-15) of the same molecule?
**A.** Its GI50 is over 100 µM.

**Q.** And the GI50 (CCRF-CEM)?
**A.** The GI50 was > 100 µM (inactive).

**Q.** And the GI50 (UACC-257)?
**A.** Its GI50 is > 100 µM (inactive).

**Q.** And the GI50 (UACC-62)?
**A.** Its GI50 is > 100 µM (inactive).

**Q.** What about the GI50 (OVCAR-8) of the same molecule?
**A.** The GI50 was > 100 µM (inactive).

**Q.** What about the GI50 (T47D) of the same molecule?
**A.** The GI50 was > 100 µM (inactive).

**Q.** And the GI50 (A549)?
**A.** Its GI50 is > 100 µM (inactive).

**Q.** And the GI50 (ACHN)?
**A.** Its GI50 is > 100 µM (inactive).

**Q.** What about the GI50 (SK-MEL-5) of the same molecule?
**A.** The GI50 was > 100 µM (inactive).

**Q.** And the GI50 (HCT-116)?
**A.** Its GI50 is > 100 µM (inactive).

**Q.** What about the GI50 (KM12) of the same molecule?
**A.** The GI50 was > 100 µM (inactive).

**Q.** What about the GI50 (HOP-92) of the same molecule?
**A.** The GI50 was 37.2 µM (inactive).

**Q.** What about the GI50 (NCI-H23) of the same molecule?
**A.** The GI50 was > 100 µM (inactive).

**Q.** What about the GI50 (OVCAR-3) of the same molecule?
**A.** The GI50 was > 100 µM (inactive).

**Q.** And the GI50 (M14)?
**A.** Its GI50 is > 100 µM (inactive).

**Q.** What about the GI50 (U-251) of the same molecule?
**A.** The GI50 was > 100 µM (inactive).

**Q.** What about the GI50 (MDA-MB-435) of the same molecule?
**A.** The GI50 was > 100 µM (inactive).

**Q.** And the GI50 (SW-620)?
**A.** The GI50 was > 100 µM (inactive).

**Q.** What about the GI50 (OVCAR-5) of the same molecule?
**A.** Its GI50 is > 100 µM (inactive).

**Q.** And the GI50 (NCI/ADR-RES)?
**A.** The GI50 was > 100 µM (inactive).

**Q.** And the GI50 (A498)?
**A.** The GI50 was > 100 µM (inactive).

**Q.** And the GI50 (SK-MEL-2)?
**A.** Its GI50 is > 100 µM (inactive).

**Q.** And the GI50 (EKVX)?
**A.** The GI50 was > 100 µM (inactive).

**Q.** And the GI50 (UO-31)?
**A.** Its GI50 is > 100 µM (inactive).

**Q.** What about the GI50 (SF-295) of the same molecule?
**A.** Its GI50 is > 100 µM (inactive).

**Q.** And the GI50 (RPMI-8226)?
**A.** The GI50 was > 100 µM (inactive).

**Q.** What about the GI50 (OVCAR-4) of the same molecule?
**A.** Its GI50 is > 100 µM (inactive).

**Q.** What about the GI50 (PC-3) of the same molecule?
**A.** The GI50 was > 100 µM (inactive).

**Q.** And the GI50 (NCI-H522)?
**A.** Its GI50 is > 100 µM (inactive).

**Q.** What about the GI50 (LOX IMVI) of the same molecule?
**A.** Its GI50 is > 100 µM (inactive).

**Q.** And the GI50 (COLO 205)?
**A.** The GI50 was > 100 µM (inactive).

**Q.** What about the GI50 (HOP-62) of the same molecule?
**A.** The GI50 was > 100 µM (inactive).

**Q.** What about the GI50 (K562) of the same molecule?
**A.** Its GI50 is > 100 µM (inactive).

**Q.** And the GI50 (MCF7)?
**A.** The GI50 was > 100 µM (inactive).

**Q.** What does the source list for `O=S(=O)(O)CCSSCCS(=O)(=O)O`?
**A.** GI50 (HT-29): > 1000 µM (inactive); GI50 (BT-549): > 1000 µM (inactive); GI50 (Malme-3M): > 1000 µM (inactive); GI50 (NCI-H226): > 1000 µM (inactive); GI50 (NCI-H460): > 1000 µM (inactive); GI50 (IGROV-1): > 1000 µM (inactive); GI50 (MDA-N): > 1000 µM (inactive); GI50 (786-0): > 1000 µM (inactive); GI50 (CAKI-1): > 1000 µM (inactive); GI50 (SF-268): > 1000 µM (inactive); GI50 (DU-145): > 1000 µM (inactive); GI50 (RXF 393): > 1000 µM (inactive); GI50 (MDA-MB-231): > 1000 µM (inactive); GI50 (SNB-19): > 1000 µM (inactive); GI50 (TK-10): > 1000 µM (inactive); GI50 (SN12C): > 1000 µM (inactive); GI50 (SK-MEL-28): > 1000 µM (inactive); GI50 (HCT-15): > 1000 µM; GI50 (CCRF-CEM): > 1000 µM (inactive); GI50 (UACC-257): > 1000 µM (inactive); GI50 (UACC-62): > 1000 µM (inactive); GI50 (OVCAR-8): > 1000 µM (inactive); GI50 (T47D): > 1000 µM (inactive); GI50 (A549): > 1000 µM (inactive); GI50 (ACHN): > 1000 µM (inactive); GI50 (HCT-116): > 1000 µM (inactive); GI50 (MOLT-4): > 1000 µM (inactive); GI50 (SNB-75): > 1000 µM (inactive); GI50 (KM12): > 1000 µM (inactive); GI50 (SK-OV-3): > 1000 µM (inactive); GI50 (HOP-92): > 1000 µM (inactive); GI50 (NCI-H23): > 1000 µM (inactive); GI50 (OVCAR-3): > 1000 µM (inactive); GI50 (M14): > 1000 µM (inactive); GI50 (U-251): > 1000 µM (inactive); GI50 (MDA-MB-435): > 1000 µM (inactive); GI50 (SW-620): > 1000 µM (inactive); GI50 (SF-539): > 1000 µM (inactive); GI50 (OVCAR-5): > 1000 µM (inactive); GI50 (NCI/ADR-RES): > 1000 µM (inactive); GI50 (A498): > 1000 µM (inactive); GI50 (SK-MEL-2): > 1000 µM (inactive); GI50 (SR): > 1000 µM (inactive); GI50 (EKVX): > 1000 µM (inactive); GI50 (UO-31): > 1000 µM (inactive); GI50 (SF-295): > 1000 µM (inactive); GI50 (RPMI-8226): > 1000 µM (inactive); GI50 (HL-60): > 1000 µM (inactive); GI50 (OVCAR-4): > 1000 µM (inactive); GI50 (PC-3): > 1000 µM (inactive); GI50 (NCI-H522): > 1000 µM (inactive); GI50 (LOX IMVI): > 1000 µM (inactive); GI50 (COLO 205): > 1000 µM (inactive); GI50 (HOP-62): > 1000 µM (inactive); GI50 (HCC 2998): > 1000 µM (inactive); GI50 (K562): > 1000 µM (inactive); GI50 (MCF7): > 1000 µM (inactive)
